In brackets after ≈: the same amount, converted by molar mass.
Columns and labels:
Assay type in all cases: functional
[1] = test system: Bacillus subtilis; test: Antibacterial activity against Bacillus subtilis BD54 after 18 hrs by broth dilution method; details: BD54, 18 h
[2] = test system: Stenotrophomonas maltophilia; test: Antibacterial activity against Stenotrophomonas maltophilia ATCC 13637 after 18 hrs by broth dilution method; details: ATCC 13637, 18 h
[3] = test system: Staphylococcus aureus; test: Antibacterial activity against methicillin-resistant Staphylococcus aureus 1094 after 18 hrs by broth dilution method; details: Staphylococcus aureus, 1094, 18 h
[4] = test system: Acinetobacter baumannii; test: Antibacterial activity against Acinetobacter baumannii ATCC 19606 after 18 hrs by broth dilution method; details: ATCC 19606 = CIP 70.34 = JCM 6841, 18 h
[5] = test system: Enterococcus faecalis; test: Antibacterial activity against Enterococcus faecalis ATCC 29212 after 18 hrs by broth dilution method; details: ATCC 29212, 18 h
[6] = test system: Staphylococcus aureus; test: Antibacterial activity against Staphylococcus aureus ATCC 25923 after 18 hrs by broth dilution method; details: ATCC 25923, 18 h
[7] = test system: Klebsiella pneumoniae; test: Antibacterial activity against Klebsiella pneumoniae ATCC 700603 after 18 hrs by broth dilution method; details: ATCC 700603, 18 h
[8] = test system: Escherichia coli; test: Antibacterial activity against Escherichia coli ATCC 29425 after 18 hrs by broth dilution method; details: ATCC 29425, 18 h
[9] = test system: Pseudomonas aeruginosa; test: Antibacterial activity against Pseudomonas aeruginosa PAO1 harboring oprM deltamexAB after 18 hrs by broth dilution method; details: PAO1, 18 h
[10] = test system: Escherichia coli; test: Antibacterial activity against TolC deficient Escherichia coli 701 after 18 hrs by broth dilution method; details: Escherichia coli, 701, 18 h
[11] = test system: Bacillus anthracis; test: Antibacterial activity against Bacillus anthracis Sterne after 18 hrs by broth dilution method
[12] = test system: Burkholderia cepacia; test: Antibacterial activity against Burkholderia cepacia ATCC 55792 after 18 hrs by broth dilution method; details: ATCC 55792, 18 h
[13] = test system: Enterococcus faecalis; test: Antibacterial activity against Enterococcus faecalis ATCC 29212 after 16 to 18 hrs by agar dilution method
[14] = test system: Klebsiella pneumoniae; test: Antibacterial activity against Klebsiella pneumoniae ATCC 13882 after 18 hrs by broth dilution method; details: ATCC 13882, 18 h
[15] = test system: Burkholderia cepacia; test: Antibacterial activity against Burkholderia cepacia ATCC 39277 after 18 hrs by broth dilution method; details: ATCC 39277, 18 h
[16] = test system: Staphylococcus aureus; test: Antibacterial activity against Staphylococcus aureus ATCC 25923 after 16 to 18 hrs by agar dilution method
[17] = test system: Pseudomonas aeruginosa; test: Antibacterial activity against Pseudomonas aeruginosa PAO1 ATCC BAA-47 after 18 hrs by broth dilution method; details: PAO1 ATCC BAA-47, 18 h
[18] = test system: Escherichia coli; test: Antibacterial activity against Escherichia coli 700 expressing TolC after 18 hrs by broth dilution method; details: Escherichia coli, 700, 18 h
[19] = test system: Escherichia coli; test: Antibacterial activity against Escherichia coli ATCC 29425 after 16 to 18 hrs by agar dilution method
[20] = test system: Enterococcus faecalis; test: Antibacterial activity against vancomycin-resistant Enterococcus faecalis ATCC 51575 after 18 hrs by broth dilution method; details: ATCC 51575, 18 h

SMILES | MIC [1] [µg/mL] | MIC [2] [µg/mL] | MIC [3] [µg/mL] | MIC [4] [µg/mL] | MIC [5] [µg/mL] | MIC [6] [µg/mL] | MIC [7] [µg/mL] | MIC [8] [µg/mL] | MIC [9] [µg/mL] | MIC [10] [µg/mL] | MIC [11] [µg/mL] | MIC [12] [µg/mL] | MIC [13] [µg/mL] | MIC [14] [µg/mL] | MIC [15] [µg/mL] | MIC [16] [µg/mL] | MIC [17] [µg/mL] | MIC [18] [µg/mL] | MIC [19] [µg/mL] | MIC [20] [µg/mL]
CCN1CCN(c2cc3c(cc2F)c(=O)c(C(=O)O)cn3C2CC2)CC1 [ENROFLOXACIN] | 0.078 (≈ 0.217 µM) | 0.098 (≈ 0.273 µM) | 5 (≈ 13.9 µM) | 0.235 (≈ 0.654 µM) | 0.625 (≈ 1.74 µM) | 0.156 (≈ 0.434 µM) | 0.625 (≈ 1.74 µM) | 0.05 (≈ 0.139 µM) | 0.078 (≈ 0.217 µM) | ≤ 0.01 | 0.078 (≈ 0.217 µM) | 0.625 (≈ 1.74 µM) | 0.13 (≈ 0.362 µM) | 0.098 (≈ 0.273 µM) | 0.098 (≈ 0.273 µM) | 0.13 (≈ 0.362 µM) | 4.4 (≈ 12.2 µM) | 0.049 (≈ 0.136 µM) | < 0.06 | 0.625 (≈ 1.74 µM)
CCn1cc(C(=O)O)c(=O)c2cc(F)c(N3CCNCC3)cc21 [NORFLOXACIN] | 0.625 (≈ 1.96 µM) | 1.25 (≈ 3.91 µM) | 40 (≈ 125 µM) | 10 (≈ 31.3 µM) | 2.5 (≈ 7.83 µM) | 1.25 (≈ 3.91 µM) | 0.938 (≈ 2.94 µM) | 0.12 (≈ 0.376 µM) | 0.039 (≈ 0.122 µM) | 0.039 (≈ 0.122 µM) | 0.313 (≈ 0.98 µM) | 2.5 (≈ 7.83 µM) | 2 (≈ 6.26 µM) | 0.117 (≈ 0.366 µM) | 1.25 (≈ 3.91 µM) | 2 (≈ 6.26 µM) | 1.25 (≈ 3.91 µM) | 0.059 (≈ 0.185 µM) | 0.01 (≈ 0.0313 µM) | 2.5 (≈ 7.83 µM)
O=CN1CCN(c2cc3c(cc2F)c(=O)c(C(=O)O)cn3C2CC2)CC1 | 0.117 (≈ 0.326 µM) | 1.25 (≈ 3.48 µM) | 40 (≈ 111 µM) | 2.5 (≈ 6.96 µM) | 0.625 (≈ 1.74 µM) | 0.313 (≈ 0.871 µM) | 5 (≈ 13.9 µM) | 0.5 (≈ 1.39 µM) | ≤ 0.078 | ≤ 0.078 | 0.235 (≈ 0.654 µM) | 1.25 (≈ 3.48 µM) | 1 (≈ 2.78 µM) | 0.156 (≈ 0.434 µM) | 0.313 (≈ 0.871 µM) | 0.5 (≈ 1.39 µM) | 10 (≈ 27.8 µM) | 0.313 (≈ 0.871 µM) | 0.5 (≈ 1.39 µM) | 2.5 (≈ 6.96 µM)
CCn1ccc(=O)c2cc(F)c(N3CCNCC3)cc21 | 80 (≈ 291 µM) | > 80 | > 80 | > 80 | > 80 | > 80 | > 80 | 40 (≈ 145 µM) | 40 (≈ 145 µM) | 5 (≈ 18.2 µM) | 80 (≈ 291 µM) | > 80 | 32 (≈ 116 µM) | 40 (≈ 145 µM) | > 80 | > 64 | > 80 | 40 (≈ 145 µM) | 64 (≈ 232 µM) | > 80
O=c1ccn(C2CC2)c2cc(N3CCNCC3)c(F)cc12 | > 80 | > 80 | > 80 | > 80 | > 80 | > 80 | > 80 | > 80 | 80 (≈ 278 µM) | > 80 | > 80 | > 80 | > 64 | > 80 | > 80 | > 64 | > 80 | > 80 | > 64 | > 80

— ChEMBL document CHEMBL1833882, “Preparation and antibacterial evaluation of decarboxylated fluoroquinolones” (2011)
